Test results: US20230365627A1, “MACROCYCLIC PEPTIDE BORONATE IMMUNOMODULATORS” (Bristol-Myers Squibb Company, priority 2020, published 2023)
*1 amine or outer side, *2 acyl side, *3 side chain or, on linkers, in order; H or OH if unused. Where a SMILES comes first, the peptide text is derived from it. Bridges are numbered along the chain shown (N, C = ends). [ ]: non-standard residue; d: D form. Trp(1-CH2CO) = O=C([C@H](Cc1cn(CC(=O)[*:3])c2ccccc12)N[*:1])[*:2]; X7 = O=C([C@H](CNCc1cc(B(O)O[*:3])ccc1OCc1ccccc1)N[*:1])[*:2]; X22 = O=C([C@H](CNCc1c(B(O)O[*:3])ccc(Cl)c1F)N[*:1])[*:2]; Trp(1-CH2COOH) = N[C@@H](Cc1cn(CC(=O)O)c2ccccc12)C(=O)O; X21 = Cc1ccc(B(O)O[*:3])c(CNC[C@H](N[*:1])C(=O)[*:2])c1; X31 = O=C([C@H](CNCc1ccc(Cl)cc1B(O)O[*:3])N[*:1])[*:2]; X19 = O=C([C@H](CNCc1cccc(B(O)O[*:3])c1F)N[*:1])[*:2]; X8 = O=C([C@H](CNCc1ccc(B(O)O[*:3])cc1Cl)N[*:1])[*:2]; X3 = O=C([C@H](CNCc1ccc(B(O)O[*:3])cc1F)N[*:1])[*:2]; X1 = Cc1cc(CNC[C@H](N[*:1])C(=O)[*:2])cc(C)c1B(O)O; X20 = O=C([C@H](CCNCc1cccc(B(O)O)c1F)N[*:1])[*:2]; Hyp = O=C(O)[C@@H]1C[C@@H](O)CN1; NMeNle = CCCC[C@H](NC)C(=O)O; NMeA = CN[C@@H](C)C(=O)O; Dab = NCC[C@H](N)C(=O)O

What follows are compounds tested against PD-1/PD-L1 (Homo sapiens (Human), UniProt Q9NZQ7) (assay: PD-1/PD-L1 Homogenous Time-Resolved Fluorescence (HTRF) binding assay). Conditions: PD-L1-His 10 nM, PD-1-Ig 20 nM; read-out: HTRF IC50.
Source text: Methods for Testing the Ability of Macrocyclic Peptides to Compete for the Binding of PD-1 to PD-L1 Using Homogenous Time-Resolved Fluorescence (HTRF) Binding Assays
The ability of the compounds of formula (I) to bind to PD-L1 was investigated using a PD-1/PD-L1 Homogenous Time-Resolved Fluorescence (HTRF) binding assay.
Homogenous Time-Resolved Fluorescence (HTRF) Binding Assay
The interaction of PD-1 and PD-L1 can be assessed using soluble, purified preparations of the extracellular domains of the two proteins. The PD-1 and PD-L1 protein extracellular domains were expressed as fusion proteins with detection tags, for PD-1, the tag was the Fc portion of Immunoglobulin (PD-1-Ig) and for PD-L1 it was the 6 histidine motif (PD-L1-His). All binding studies were performed in an HTRF assay buffer consisting of dPBS supplemented with 0.1% […] bovine serum albumin and 0.05% (v/v) Tween-20. For the h/PD-L1-His binding assay, inhibitors were pre-incubated with PD-L1-His (10 nM final) for 15 m in 4 μl of assay buffer, followed by addition of PD-1-Ig (20 nM final) in 1 μl of assay buffer and further incubation for 15 m. HTRF detection was achieved using europium cryptate-labeled anti-Ig (1 nM final) and allophycocyanin (APC) labeled anti-His (20 nM final). Antibodies were diluted in HTRF detection buffer and 5 μl was dispensed on top of the binding reaction. The reaction mixture was allowed to equilibrate for 30 minutes and the resulting signal (665 nm/620 nm ratio) was obtained using an EnVision fluorometer. Additional binding assays were established between the human proteins PD-1-Ig/PD-L2-His (20 & 5 nM, respectively) and CD80-His/PD-L1-Ig (100 & 10 nM, respectively).
Recombinant Proteins: Human PD-1 (25-167) with a C-terminal human Fc domain of immunoglobulin G (Ig) epitope tag [hPD-1 (25-167)-3S-IG] and human PD-L1 (18-239) with a C-terminal His epitope tag [hPD-L1(18-239)-TVMV-His] were expressed in HEK293T cells and purified sequentially by ProteinA affinity chromatography and size exclusion chromatography. Human PD-L2-His and CD80-His was obtained through commercial sources.
Table 1 lists the IC50 values for representative examples of this disclosure measured in the PD-1/PD-L1 Homogenous Time-Resolved Fluorescence (HTRF) binding assay.

Chain of PD-1/PD-L1 (Q9NZQ7 18-239): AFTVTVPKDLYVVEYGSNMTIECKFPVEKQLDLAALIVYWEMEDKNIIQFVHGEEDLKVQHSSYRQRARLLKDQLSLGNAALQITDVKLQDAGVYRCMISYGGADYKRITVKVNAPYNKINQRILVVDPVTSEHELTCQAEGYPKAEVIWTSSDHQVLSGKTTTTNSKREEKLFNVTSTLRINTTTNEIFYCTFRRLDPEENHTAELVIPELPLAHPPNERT

| Compound | IC50 |
| --- | --- |
| CCCC[C@H]1C(=O)N(C)[C@@H](CCCC)C(=O)N[C@@H](CC(C)C)C(=O)N[C@H](C(=O)NCC(N)=O)CSCC(=O)N[C@@H](Cc2ccc(O)cc2)C(=O)N(C)[C@@H](C)C(=O)N[C@@H](CC(N)=O)C(=O)N2CCC[C@H]2C(=O)N[C@H]2CNCc3ccc(cc3F)B(O)OC(=O)Cn3cc(c4ccccc43)C[C@H](NC(=O)[C@H](CCN)NC(=O)[C@H](Cc3c[nH]c4ccccc34)NC(=O)[C@@H]3C[C@@H](O)CN3C(=O)[C@H](CC(C)C)NC2=O)C(=O)N1C [Example 1013] ({CH2CO}-Y[NMeA]NP[X3]L[Hyp]W[Dab][Trp(1-CH2CO)][NMeNle][NMeNle]LCG-NH2; ester 5-10; thioether N-14) | 3.7 nM |
| CCCC[C@H]1C(=O)N(C)[C@@H](CCCC)C(=O)N[C@@H](CC(C)C)C(=O)N[C@H](C(=O)NCC(N)=O)CSCC(=O)N[C@@H](Cc2ccc(O)cc2)C(=O)N(C)[C@@H](C)C(=O)N[C@@H](CC(N)=O)C(=O)N2CCC[C@H]2C(=O)N[C@@H](CNCc2cc(C)c(B(O)O)c(C)c2)C(=O)N[C@@H](CC(C)C)C(=O)N2C[C@H](O)C[C@H]2C(=O)N[C@@H](Cc2c[nH]c3ccccc23)C(=O)N[C@@H](CCN)C(=O)N[C@@H](Cc2cn(CC(=O)O)c3ccccc23)C(=O)N1C [Example 1014] ({CH2CO}-Y[NMeA]NP[X1]L[Hyp]W[Dab][Trp(1-CH2COOH)][NMeNle][NMeNle]LCG-NH2; thioether N-14) | 8.2 nM |
| CCCC[C@H]1C(=O)N(C)[C@@H](CCCC)C(=O)N[C@@H](CC(C)C)C(=O)N[C@H](C(=O)NCC(N)=O)CSCC(=O)N[C@@H](Cc2ccc(O)cc2)C(=O)N(C)[C@@H](C)C(=O)N[C@@H](CC(N)=O)C(=O)N2CCC[C@H]2C(=O)N[C@H]2CNCc3cccc(c3F)B(O)OC(=O)Cn3cc(c4ccccc43)C[C@H](NC(=O)[C@H](CCN)NC(=O)[C@H](Cc3c[nH]c4ccccc34)NC(=O)[C@@H]3C[C@@H](O)CN3C(=O)[C@H](CC(C)C)NC2=O)C(=O)N1C [Example 1015] ({CH2CO}-Y[NMeA]NP[X19]L[Hyp]W[Dab][Trp(1-CH2CO)][NMeNle][NMeNle]LCG-NH2; ester 5-10; thioether N-14) | 6.7 nM |
| CCCC[C@H]1C(=O)N(C)[C@@H](CCCC)C(=O)N[C@@H](CC(C)C)C(=O)N[C@H](C(=O)NCC(N)=O)CSCC(=O)N[C@@H](Cc2ccc(O)cc2)C(=O)N(C)[C@@H](C)C(=O)N[C@@H](CC(N)=O)C(=O)N2CCC[C@H]2C(=O)N[C@H]2CNCc3cc(C)ccc3B(O)OC(=O)Cn3cc(c4ccccc43)C[C@H](NC(=O)[C@H](CCN)NC(=O)[C@H](Cc3c[nH]c4ccccc34)NC(=O)[C@@H]3C[C@@H](O)CN3C(=O)[C@H](CC(C)C)NC2=O)C(=O)N1C [Example 1016] ({CH2CO}-Y[NMeA]NP[X21]L[Hyp]W[Dab][Trp(1-CH2CO)][NMeNle][NMeNle]LCG-NH2; ester 5-10; thioether N-14) | 8.3 nM |
| CCCC[C@H]1C(=O)N(C)[C@@H](CCCC)C(=O)N[C@@H](CC(C)C)C(=O)N[C@H](C(=O)NCC(N)=O)CSCC(=O)N[C@@H](Cc2ccc(O)cc2)C(=O)N(C)[C@@H](C)C(=O)N[C@@H](CC(N)=O)C(=O)N2CCC[C@H]2C(=O)N[C@H]2CNCc3c(ccc(Cl)c3F)B(O)OC(=O)Cn3cc(c4ccccc43)C[C@H](NC(=O)[C@H](CCN)NC(=O)[C@H](Cc3c[nH]c4ccccc34)NC(=O)[C@@H]3C[C@@H](O)CN3C(=O)[C@H](CC(C)C)NC2=O)C(=O)N1C [Example 1017] ({CH2CO}-Y[NMeA]NP[X22]L[Hyp]W[Dab][Trp(1-CH2CO)][NMeNle][NMeNle]LCG-NH2; ester 5-10; thioether N-14) | 7.1 nM |
| CCCC[C@H]1C(=O)N(C)[C@@H](CCCC)C(=O)N[C@@H](CC(C)C)C(=O)N[C@H](C(=O)NCC(N)=O)CSCC(=O)N[C@@H](Cc2ccc(O)cc2)C(=O)N(C)[C@@H](C)C(=O)N[C@@H](CC(N)=O)C(=O)N2CCC[C@H]2C(=O)N[C@H]2CNCc3ccc(Cl)cc3B(O)OC(=O)Cn3cc(c4ccccc43)C[C@H](NC(=O)[C@H](CCN)NC(=O)[C@H](Cc3c[nH]c4ccccc34)NC(=O)[C@@H]3C[C@@H](O)CN3C(=O)[C@H](CC(C)C)NC2=O)C(=O)N1C [Example 1018] ({CH2CO}-Y[NMeA]NP[X31]L[Hyp]W[Dab][Trp(1-CH2CO)][NMeNle][NMeNle]LCG-NH2; ester 5-10; thioether N-14) | 4.9 nM |
| CCCC[C@H]1C(=O)N(C)[C@@H](CCCC)C(=O)N[C@@H](CC(C)C)C(=O)N[C@H](C(=O)NCC(N)=O)CSCC(=O)N[C@@H](Cc2ccc(O)cc2)C(=O)N(C)[C@@H](C)C(=O)N[C@@H](CC(N)=O)C(=O)N2CCC[C@H]2C(=O)N[C@H]2CNCc3cc(ccc3OCc3ccccc3)B(O)OC(=O)Cn3cc(c4ccccc43)C[C@H](NC(=O)[C@H](CCN)NC(=O)[C@H](Cc3c[nH]c4ccccc34)NC(=O)[C@@H]3C[C@@H](O)CN3C(=O)[C@H](CC(C)C)NC2=O)C(=O)N1C [Example 1019] ({CH2CO}-Y[NMeA]NP[X7]L[Hyp]W[Dab][Trp(1-CH2CO)][NMeNle][NMeNle]LCG-NH2; ester 5-10; thioether N-14) | 4.8 nM |
| CCCC[C@H]1C(=O)N(C)[C@@H](CCCC)C(=O)N[C@@H](CC(C)C)C(=O)N[C@H](C(=O)NCC(N)=O)CSCC(=O)N[C@@H](Cc2ccc(O)cc2)C(=O)N(C)[C@@H](C)C(=O)N[C@@H](CC(N)=O)C(=O)N2CCC[C@H]2C(=O)N[C@H]2CNCc3ccc(cc3Cl)B(O)OC(=O)Cn3cc(c4ccccc43)C[C@H](NC(=O)[C@H](CCN)NC(=O)[C@H](Cc3c[nH]c4ccccc34)NC(=O)[C@@H]3C[C@@H](O)CN3C(=O)[C@H](CC(C)C)NC2=O)C(=O)N1C [Example 1020] ({CH2CO}-Y[NMeA]NP[X8]L[Hyp]W[Dab][Trp(1-CH2CO)][NMeNle][NMeNle]LCG-NH2; ester 5-10; thioether N-14) | 14 nM |
| CCCC[C@H]1C(=O)N(C)[C@@H](CCCC)C(=O)N[C@@H](CC(C)C)C(=O)N[C@H](C(=O)NCC(N)=O)CSCC(=O)N[C@H]2Cc3ccc(cc3)OB(O)c3ccc(C)cc3CNCC[C@@H]3NC(=O)[C@H](Cc4c[nH]c5ccccc45)NC(=O)[C@@H]4C[C@@H](O)CN4C(=O)[C@H](CC(C)C)NC(=O)[C@H](CNCc4cc(C)ccc4B(O)OC(=O)Cn4cc(c5ccccc54)C[C@H](NC3=O)C(=O)N1C)NC(=O)[C@@H]1CCCN1C(=O)[C@H](CC(N)=O)NC(=O)[C@H](C)N(C)C2=O [Example 1021] | 5.3 nM |
| CCCC[C@H]1C(=O)N(C)[C@@H](CCCC)C(=O)N[C@@H](CC(C)C)C(=O)N[C@H](C(=O)NCC(N)=O)CSCC(=O)N[C@@H](Cc2ccc(O)cc2)C(=O)N(C)[C@@H](C)C(=O)N[C@@H](CC(N)=O)C(=O)N2CCC[C@H]2C(=O)N[C@H]2CNCc3cccc(c3F)B(O)OC(=O)Cn3cc(c4ccccc43)C[C@H](NC(=O)[C@H](CCNCc3cccc(B(O)O)c3F)NC(=O)[C@H](Cc3c[nH]c4ccccc34)NC(=O)[C@@H]3C[C@@H](O)CN3C(=O)[C@H](CC(C)C)NC2=O)C(=O)N1C [Example 1022] ({CH2CO}-Y[NMeA]NP[X19]L[Hyp]W[X20][Trp(1-CH2CO)][NMeNle][NMeNle]LCG-NH2; ester 5-10; thioether N-14) | 5 nM |
